`Cn1ncnc1COCc1cccc(-n2cnc3cc(C(F)(F)F)ccc32)c1` gave a melting point of 121 to 124 °C.
With `CC(Cc1ccc(Oc2cc(N3CCN(Cc4ccccn4)CC3)nc(N)n2)cc1)(Oc1ccccc1)C(=O)O` (stereo not drawn) the melting point was 138 to 139 °C.
`Cc1cc(-c2cc(C(F)(F)F)nn2-c2ccc(S(C)(=O)=O)cc2)ccc1-c1cscn1` showed a melting point of 140 to 142 °C.
For `Cc1nn(C)c2c1nc(O)c1c(C(=O)O)cnn12`, the melting point was over 300 °C.
Work on `CNC(=O)c1ccc(C=CC(=O)NCC(=O)N(C)c2ccc(Cl)c(CO)c2Cl)cc1` yielded a melting point of 207 to 211 °C.
`O=C(O)c1ccc(N2CC(=O)N(S(=O)(=O)c3ccc(Cl)cc3)C2=O)cc1` showed a melting point of 271 to 272 °C.
For `COc1nc2ccc([N+](=O)[O-])cc2nc1Cl`, the melting point was 155 to 158 °C.
Work on `COc1ccc(C(C(c2ccccc2)c2ccc(F)cc2)C(F)(F)F)cc1` (stereo not drawn) yielded a melting point of 113 to 120 °C.
With `C=CCc1cc2c(c(CC=C)c1O)CCC(=O)N2Cc1ccc(C(=O)O)cc1` the melting point was 242 to 246 °C.
With `CC(=NNC(=S)NCCN1CCOCC1)c1ccccn1` the melting point was 168 to 169 °C.
Work on `CC#CCOc1ccc(S(=O)(=O)N(C)C(C(=O)NO)C(C)(C)SCCN(CC)CC)cc1` (stereo not drawn) yielded a melting point of 55 to 57 °C.
Work on `O=C(O)C1Cc2c(c(Cl)cc3c(-c4ccccc4)noc23)O1` (stereo not drawn) yielded a melting point of 221 to 224 °C.
In the case of `COC(=O)Oc1ccc(-c2ccc(=O)n(Cc3ccc(Cl)cc3F)c2)cc1`, the melting point is reported as 124 °C.
Compound `Cn1ccc(NC(=O)Nc2cccc3c2C2CC4(CCN2C3=O)SCCS4)n1` (stereo not drawn) has a melting point of 135 °C.
`CSC(=S)NN=Cc1c[nH]cn1` gave a melting point of 259 to 261 °C.
For `O=C(O)Cc1ccc(CCNS(=O)(=O)c2ccc(Cl)cc2)s1`, the melting point was 138 °C.
Work on `O=c1[nH]cccc1-c1cccn2nc(Nc3ccc4ncccc4c3)nc12` yielded a melting point of over 250 °C.
In the case of `COc1cccc2c1CCC(CN1C(=O)c3ccccc3C1=O)C2` (stereo not drawn), the melting point is reported as 143 to 144 °C.
Compound `O=C(O)c1cccc(NC(=O)C(CS)Cc2ccc(F)cc2)c1` (stereo not drawn) has a melting point of 180 to 182 °C.
`COc1nc(N)ccc1C(=O)CCC1CCN(CC2CCCCC2)CC1` showed a melting point of 73.2 °C.
`CC(C)c1nc(CCO)n(Cc2ccncc2)c1Sc1cc(Cl)cc(Cl)c1` gave a melting point of 121 to 122 °C.
Compound `CC1(c2ccccc2)SC(=NO)N(Nc2ccccc2)C1=O` (stereo not drawn) has a melting point of 62 to 63 °C.
In the case of `COc1ccccc1CN[C@H]1CCCN(CCCCCCc2ccccc2)[C@H]1c1ccccc1` (relative stereo), the melting point is reported as 48 to 53 °C.
For `CSC(=Cc1ccccc1N(Cc1ccccc1)c1c(Cl)cccc1Cl)S(C)=O` (stereo not drawn), the melting point was 194 to 196 °C.
For `COc1ccc2cc(-c3ccc(S(C)(=O)=O)cc3)ccc2n1`, the melting point was 182 to 184 °C.
Compound `CCOC(=O)Cn1c(-c2cc3c(cc2[N+](=O)[O-])OCO3)nc2ccccc21` has a melting point of 136 to 138 °C.
Compound `COc1ccccc1C(=O)NS(=O)(=O)c1ccc(N)cc1` has a melting point of 180 to 182 °C.
With `CCC1CC(=O)N(Cc2ccc(NC(C)=O)cc2)N=C1c1ccc(OC)c(OC)c1` (stereo not drawn) the melting point was 133 °C.
With `CCCC(Sc1cc(C(C)(C)C)c(O)c(C(C)(C)C)c1)C(=O)Nc1c(C)cccc1C` (stereo not drawn) the melting point was 137 to 140 °C.
Compound `CCCCn1cnc2c(Oc3ccccc3)nc(Nc3ccc(OC)cc3OC)nc21` has a melting point of 97 to 99 °C.
`O=C(O)C(CCc1ccc2c(c1)CCO2)NC(=O)C(F)(F)F` (stereo not drawn) gave a melting point of 125 °C.
With `CC(Oc1ccc(F)cc1Cl)c1ccnc2ncnn12` (stereo not drawn) the melting point was 89 to 91 °C.
With `CC(C)NC1=NS(=O)(=O)c2cc(C(C)(C)C)ccc2N1` the melting point was 128 to 130 °C.
For `Oc1ccc2c(c1)CCCC(c1ccccc1)=C2c1ccc(OCCCCCSCCCC(F)(F)F)cc1`, the melting point was 168 °C.
With `CC1(C)NC(=O)N(c2ccc(F)cc2)C1=O` the melting point was 166 to 167 °C.
Work on `CC(C)(C)OC(=O)N[C@@H](Cc1ccc(O)cc1)C(=O)NCC(=O)NCC(=O)Oc1c(Cl)c(Cl)c(Cl)c(Cl)c1Cl` yielded a melting point of 186 °C.
In the case of `CC(C)c1ccc(S(=O)(=O)n2c(CCCC(=O)O)cc3nc(Cl)ccc32)cc1`, the melting point is reported as 155 °C.
`CN(C)Cc1cccc(OCCCNc2nc(N=Cc3ccncc3)nn2C)c1` showed a melting point of 127 to 128 °C.

Reference: a melting point compilation (Tetko et al.; mined from patent text by program, amines drawn as free bases though some values may be those of a salt)
